# Source: paper PMC9675574 (JCI Insight, 2022)
# Several values for one entry are separate records, joined by “and”; a condition that tells them apart may be missing. Equal entries are not always repeated. Where two headings read alike, the source gives them in different places.
# Tests used:
# [1] = tested on: cerulein-induced pancreatitis in T7K24R mice; test: Cerulein-induced pancreatitis in T7K24R mice; type: in vivo, mouse
# Experimental: Pancreatitis was induced in T7K24R mice with 8 hourly intraperitoneal injections of the secretagogue peptide cerulein used in a dose of 50 μg/kg. Cerulein (catalog number C9026, MilliporeSigma) was dissolved in sterile normal saline at 10 μg/mL concentration. Mice were sacrificed 1, 24, 48, 72, or 96 hours from the first cerulein injection, as indicated, and the pancreas and blood were harvested. Details of histological analysis and measurement of plasma amylase (4 μL assayed) were reported previously ([29]–[31]).
# (§1) Control mice were given gavage of the vehicle solution (Captisol; see below) or regular chow.
# (§2) Captisol (β-cyclodextrin sulfobutyl ethers, sodium salts, lot number NC-04A-180185) was obtained from Cydex Pharmaceuticals (through Thermo Fisher Scientific) and was dissolved in sterile normal saline (3.5 g in 10 mL). […] The mixture was then compressed into pellets using the barrel of a 10 mL plastic syringe and a plunger. The prodrug-containing pellets were allowed to dry at 24°C for 2 days and stored at 4°C until use.
# [2] = tested on: spontaneous pancreatitis in T7D23A mice; test: Spontaneous pancreatitis in T7D23A mice, oral gavage; type: in vivo, mouse
# Excerpt: (§3) The generation and properties of the T7D23A and T7K24R mice carrying trypsinogen mutations were described recently ([29], [30]). Heterozygous T7D23A and homozygous T7K24R mice were used. Protocols for genotyping have been reported earlier ([29], [30]). C57BL/6N mice were purchased from Charles River Laboratories or produced in our breeding facility from the same stock. Both male and female mice were studied.
# as §1, §2
# [3] = tested on: spontaneous pancreatitis in T7D23A mice; test: Spontaneous pancreatitis in T7D23A mice, feeding with drug-containing chow; type: in vivo, mouse
# Excerpt: as §3, §1, §2
# T7D23A and T7K24R mice = test: Safety observations in treated mice; type: in vivo, mouse
# Excerpt: as §1
# [4] = Estimation of absorbed dabigatran etexilate; set-up: species or system mouse
# [5] = humans; independent of dose, not influenced by food; cited from earlier work
# [6] = tested on: cerulein-induced pancreatitis in PRSS1^R122H mice; conditions: cited from earlier work
# [7] = tested on: transmembrane serine protease 2; conditions: cited from earlier work
# trypsin = conditions: cited from earlier work
# [8] = single oral gavage 200 mg/kg 30 minutes after last cerulein injection, 96 hours
# [9] = single oral gavage 200 mg/kg, 15 treated mice
# [10] = gavage 1 × 100, 2 × 100 or 1 × 200 mg/kg daily for 2 weeks
structure (smiles),measurement,setting,value
CCCCCCOC(=O)NC(=N)c1ccc(NCc2nc3cc(C(=O)N(CCC(=O)OCC)c4ccccn4)ccc3n2C)cc1 [dabigatran etexilate],"body weight, start versus end of experiment",[1]; [8],no change in body weight
same,pancreas weight versus vehicle-treated mice with pancreatitis,[1]; [8],significantly higher
same,share of drug-treated mice with complete protective effect (histology),[1]; [9],~50%
same,share of mice with significant yet incomplete effect (30%–50% normal histology),[1]; [9],about 20%
same,plasma amylase activity in a subset of treated mice (4 of 15),"[1]; single oral gavage 200 mg/kg, 4 days after induction",more than 3 fold
same,proportion of intact acini versus vehicle-treated group,"[1]; single oral gavage 200 mg/kg, histology at 96 hours",significantly higher
same,"intact acini on pancreas sections, individual mice with elevated plasma amylase","[1]; single oral gavage 200 mg/kg, the 4 mice with elevated amylase, 200 mg/kg",45% and 13% and 15% and 35%
same,"intact acini per visual field, treated versus untreated",[2]; [10],no appreciable difference
same,pancreas weight,[2]; [10],did not improve
same,plasma amylase levels relative to untreated T7D23A controls,[2]; [10],significantly lower
same,body weight gain,"[2]; gavage 1 × 100, 2 × 100 or 1 × 200 mg/kg daily for 2 weeks, 3 to 5 weeks of age",unaffected by gavage treatment
same,effect on spontaneous pancreatitis,[2]; intragastric gavage for 2 weeks,did not ameliorate
same,effect on spontaneous pancreatitis,[3]; chow with 10 mg/g for 1 week,did not prevent or improve
same,"intact acini, pancreatitis severity",[3]; chow with 10 mg/g for 1 week,no effect
same,plasma amylase activities,"[3]; chow with 10 mg/g for 1 week, all 4 groups",comparable
same,"pancreas weight, treated versus untreated","[3]; chow with 10 mg/g for 1 week, both strains (C57BL/6N and T7D23A)",small increase
same,body weight gain,"[3]; chow with 10 mg/g, 21 to 28 days of age, C57BL/6N and T7D23A",gained weight similarly
same,"bleeding, morbidity, mortality",T7D23A and T7K24R mice; gavage 100 or 200 mg/kg or chow 10 mg/g,"no bleeding, morbidity, or mortality were observed"
same,"hematoxylin-eosin sections of liver, intestine, and kidney",T7D23A and T7K24R mice; mice treated with dabigatran etexilate or vehicle,no signs of organ damage
same,daily dose of absorbed dabigatran etexilate,"[4]; 10 mg prodrug/g chow, about 4 g chow per 24 hours, estimated",2.6 mg
same,systemically absorbed single dose,"[4]; 100 mg/kg intragastric gavage, 20 g mouse, estimated from human bioavailability",0.13 mg
same,oral bioavailability,[5],around 6.5%
same,effect on cerulein-induced pancreatitis,[6]; PRSS1^R122H transgenic mice,markedly improved
CN(C)C(=O)COC(=O)Cc1ccc(OC(=O)c2ccc(NC(=N)N)cc2)cc1 [camostat],therapeutic activity,[6]; 200 mg/kg alone,only a partial effect
same,inhibition of transmembrane serine protease 2,[7],strong inhibitors
COc1ccc(-n2nc(C(N)=O)c3c2C(=O)N(c2ccc(N4CCCCC4=O)cc2)CC3)cc1 [apixaban],therapeutic activity,[6]; 100 mg/kg alone,no therapeutic activity whatsoever
same,therapeutic activity,[6]; apixaban 100 mg/kg combined with camostat 200 mg/kg,highly effective
same,trypsin-inhibitory activity,trypsin,devoid of trypsin-inhibitory activity
N=C(N)c1ccc2cc(OC(=O)c3ccc(N=C(N)N)cc3)ccc2c1 [nafamostat],inhibition of transmembrane serine protease 2,[7],strong inhibitors
